From US12180192B2, “Modulators of THR-β and methods of use thereof” (ALIGOS THERAPEUTICS, INC., priority 2019, dated 2024)
Where two headings read alike, the source gives them in different places.

Key:
[1] = biological target: T1, human thyroid receptor beta ligand-binding domain (LBD) (Homo sapiens, UniProt P10828); experiment: TR-FRET thyroid receptor beta coactivator assay (THR biochemical assay, Assay 1); conditions: for EC50: THR-beta, TR-FRET coactivator assay, read-out: Activity category Assay 1 (EC50, THR-beta agonist); for Emax: read-out: Activity category Assay 1 THRβ (Emax)
T1 construct: purchased Invitrogen
T1 sequence (P10828 217-461 limits assumed): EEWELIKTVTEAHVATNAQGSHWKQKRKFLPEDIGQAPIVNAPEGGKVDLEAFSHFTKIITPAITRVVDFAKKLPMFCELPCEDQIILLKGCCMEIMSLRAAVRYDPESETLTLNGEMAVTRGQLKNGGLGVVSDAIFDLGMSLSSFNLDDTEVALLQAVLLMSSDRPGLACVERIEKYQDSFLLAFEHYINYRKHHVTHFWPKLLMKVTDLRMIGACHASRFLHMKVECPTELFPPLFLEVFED
Source text: (§1) The TR-FRET thyroid receptor beta coactivator assay was used with slight, optimized modifications of the manufacturer's protocol (Invitrogen). The assay uses a terbium-labeled anti-GST antibody, a glutathione-S-transferase (GST) tagged human thyroid receptor, beta or alpha, ligand-binding domain (LBD), and a fluorescein labeled SRC2-2 coactivator peptide. […] The energy transfer is detected as an increase in the fluorescence emission of the fluorescein acceptor, and a decrease in the fluorescence emission of the terbium donor. The assay is performed in a 384-well black plate in a final volume of 20 μL. Serial dilution of various test agonists was performed in DMSO (1% final DMSO concentration) and added to the test plate. Thyroid receptor beta LBD is added to the plate at a final concentration of 1 nM, followed by the mixture of the fluorescein labeled SRC2-2 coactivator peptide, and the terbium-labeled anti-GST antibody at final concentrations of 200 nM and 2 nM respectively. The assay is incubated for 1 hr at rt protected from light.

THR alpha = biological target: T2, THR alpha (Homo sapiens, UniProt P10827); experiment: HEK293T THR alpha/RXR luciferase reporter assay (Assay 2); type: cell-based; conditions: Assay 2; for Emax: HEK-293T, Table 5, THRα, read-out: Activity category Assay 2 THRα (Emax); for EC50: Table 4, THR-alpha, read-out: Activity category Assay 2 (EC50, THR-alpha agonist activity)
T2 construct: expressed in transfected cells; host or cells: HEK293T (ATCC CRL-3216)
T2 sequence (P10827 1-410 isoform P10827-2): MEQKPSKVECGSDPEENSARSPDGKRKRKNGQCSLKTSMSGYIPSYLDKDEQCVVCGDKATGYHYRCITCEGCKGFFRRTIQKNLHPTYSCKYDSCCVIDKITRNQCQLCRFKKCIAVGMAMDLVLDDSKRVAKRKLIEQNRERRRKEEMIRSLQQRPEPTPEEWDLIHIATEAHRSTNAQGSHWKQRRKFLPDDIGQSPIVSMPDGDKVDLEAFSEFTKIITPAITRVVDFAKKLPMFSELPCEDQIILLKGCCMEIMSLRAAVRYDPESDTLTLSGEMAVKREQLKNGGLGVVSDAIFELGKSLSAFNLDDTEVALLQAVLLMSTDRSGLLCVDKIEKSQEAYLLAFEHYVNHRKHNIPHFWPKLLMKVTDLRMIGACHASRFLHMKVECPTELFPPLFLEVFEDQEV
T2 sequence (P19793 1-462 partner): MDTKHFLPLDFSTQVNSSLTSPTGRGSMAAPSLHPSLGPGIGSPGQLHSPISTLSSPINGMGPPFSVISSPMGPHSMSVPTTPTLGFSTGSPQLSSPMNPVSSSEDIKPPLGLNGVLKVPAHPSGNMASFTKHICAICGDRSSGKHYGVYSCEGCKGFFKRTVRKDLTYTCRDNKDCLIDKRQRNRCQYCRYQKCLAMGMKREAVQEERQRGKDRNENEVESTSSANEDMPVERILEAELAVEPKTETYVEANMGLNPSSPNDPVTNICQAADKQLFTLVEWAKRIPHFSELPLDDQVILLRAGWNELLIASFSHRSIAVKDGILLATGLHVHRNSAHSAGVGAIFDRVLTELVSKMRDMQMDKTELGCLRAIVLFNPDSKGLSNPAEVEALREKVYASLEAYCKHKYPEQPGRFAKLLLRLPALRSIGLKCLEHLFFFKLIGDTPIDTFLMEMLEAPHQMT
Procedure: (§2) HEK293T Reporter THRalpha/Beta/RXR Reporter Assay (Assay 2)
(§3) The purpose of this assay is to evaluate the effect of compounds on the thyroid hormone nuclear receptor pathway in HEK293T cells. To this end, HEK293T cells are transiently transfected with a luciferase reporter under the control of the thyroid response element (TRE), an RXR expression plasmid and either a THR alpha or THR beta expression plasmid. Transfected cells are stimulated with test compounds for 18-24 hours before activation of the thyroid hormone pathway is measured via a luciferase read-out.
(§4) Procedure. […] Ten five-fold dilutions of test compounds are prepared in DMSO and 30 nL are dispensed to the cells. […] Approximately 18-24 h after compound addition, 384 well plates are allowed to adjust to rt, 30 μL One-Glo (Promega catalog #E6120) is added to each well and luminescence is measured on a Perkin Elmer Enspire plate reader. Percent agonism is calculated using the following equation: 100× (sample-negative control)/(positive control-negative control).

THR beta = biological target: T3, THR beta (Homo sapiens, UniProt P10828); experiment: HEK293T THR beta/RXR luciferase reporter assay (Assay 2); type: cell-based; conditions: for Emax: HEK-293T, read-out: Activity category Assay 2 THRβ (Emax); for EC50: THR-beta, HEK293T reporter assay, read-out: Activity category Assay 2 (EC50, THR-beta agonist)
T3 construct: expressed in transfected cells; host or cells: HEK293T (ATCC CRL-3216)
T3 sequence (P10828 1-461): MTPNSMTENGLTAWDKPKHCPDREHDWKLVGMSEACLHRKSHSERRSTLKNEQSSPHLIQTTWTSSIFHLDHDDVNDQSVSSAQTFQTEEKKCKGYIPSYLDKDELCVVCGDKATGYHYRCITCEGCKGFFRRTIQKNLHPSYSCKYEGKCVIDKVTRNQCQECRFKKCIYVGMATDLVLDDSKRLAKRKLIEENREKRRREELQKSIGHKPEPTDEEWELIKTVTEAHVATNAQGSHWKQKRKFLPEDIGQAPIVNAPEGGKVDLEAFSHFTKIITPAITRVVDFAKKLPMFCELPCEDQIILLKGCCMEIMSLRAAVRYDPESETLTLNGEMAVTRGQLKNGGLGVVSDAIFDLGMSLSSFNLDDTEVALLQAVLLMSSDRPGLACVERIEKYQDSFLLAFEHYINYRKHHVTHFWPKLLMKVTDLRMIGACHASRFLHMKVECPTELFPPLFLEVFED
T3 sequence (P19793 1-462 partner): T2 sequence (P19793 1-462 partner)
Procedure: as §2, §3, §4

[2] = biological target: T4, human thyroid receptor alpha ligand-binding domain (LBD) (Homo sapiens, UniProt P10827); experiment: TR-FRET thyroid receptor alpha coactivator assay (THR biochemical assay, Assay 1); conditions: for EC50: Table 4, THR-alpha, read-out: Activity category Assay 1 (EC50, THR-alpha agonist activity); for Emax: Table 5, THRα, read-out: Activity category Assay 1 THRα (Emax)
T4 construct: purchased Invitrogen
Source text: as §1

Structure (SMILES)	EC50 [1]	Emax [1]	Emax (THR alpha)	EC50 (THR alpha)	Emax (THR beta)	EC50 (THR beta)	EC50 [2]	Emax [2]	Emax ([1]; Table 5, Assay 1, THRβ)	Emax (THR beta; Table 5, Assay 2, THRβ)
COC(=O)c1c[nH]c2ccc(Oc3c(Cl)cc(-n4nc(C#N)c(=O)[nH]c4=O)cc3Cl)cc12 [Compound 4, methyl 5-[2,6-dichloro-4-(6-cyano-3,5-dioxo-4H-1,2,4-triazin-2-yl)phenoxy]-1H-indole-3-carboxylate]	< 50 nM	< 50%	50 to 75%	> 10000 nM	> 75%	1000 to 10000 nM	> 25000 nM	< 50%		
N#Cc1nn(-c2cc(Cl)c(Oc3ccc4[nH]cc(C5CCCC5)c4c3)c(Cl)c2)c(=O)[nH]c1=O [Compound 5, 2-[3,5-dichloro-4-[(3-cyclopentyl-1H-indol-5-yl)oxy]phenyl]-3,5-dioxo-4H-1,2,4-tri-azine-6-carbonitrile]	< 50 nM		50 to 75%	1000 to 10000 nM		250 to 1000 nM	> 25000 nM	< 50%	< 50%	> 75%
N#Cc1nn(-c2cc(Cl)c(Oc3ccc4[nH]cc(C#N)c4c3)c(Cl)c2)c(=O)[nH]c1=O [Compound 17, 5-[2,6-dichloro-4-(6-cyano-3,5-dioxo-4H-1,2,4-triazin-2-yl)phenoxy]-1H-indole-3-carbonitrile]	< 50 nM		< 50%	> 10000 nM		1000 to 10000 nM	> 25000 nM	< 50%	< 50%	> 75%
CCCc1c[nH]c2ccc(Oc3c(Cl)cc(-n4nc(C#N)c(=O)[nH]c4=O)cc3Cl)nc12 [Compound 19]	< 50 nM		< 50%	1000 to 10000 nM		1000 to 10000 nM	> 25000 nM	< 50%	< 50%	> 75%
CC(C)NC(=O)c1c[nH]c2ccc(Oc3c(Cl)cc(-n4nc(C#N)c(=O)[nH]c4=O)cc3Cl)cc12 [Compound 20]	> 25000 nM		< 50%	> 10000 nM		> 10000 nM	> 25000 nM	< 50%	< 50%	< 50%
CC(C)c1cc(Oc2c(Cl)cc(-c3nn(C(F)F)c(=O)[nH]c3=O)cc2Cl)n[nH]c1=O [Compound 28, 6-[3,5-dichloro-4-[(5-isopropyl-6-oxo-1H-pyridazin-3-yl)oxy]phenyl]-2-(difluoromethyl)-4H-1,2,4-triazine-3,5-dione]	50 to 250 nM		50 to 75%	1000 to 10000 nM		250 to 1000 nM	250 to 1000 nM	50 to 75%	< 50%	> 75%
CCCCCc1n[nH]c2ccc(Cc3c(C)cc(-n4nc(C#N)c(=O)[nH]c4=O)cc3C)cc12 [Compound 32]	< 50 nM		> 75%	50 to 250 nM		50 to 250 nM	< 50 nM	50 to 75%	> 75%	> 75%
Cc1c(-n2nc(N)c(=O)[nH]c2=O)cc(Cl)c(Oc2cc(C(C)C)c(=O)[nH]n2)c1Cl [Compound 35, 6-amino-2-[3,5-dichloro-4-[(5-isopropyl-6-oxo-1H-pyridazin-3-yl)oxy]-2-methyl-phenyl]-4H-1,2,4-triazine-3,5-dione]	1000 to 25000 nM		< 50%	1000 to 10000 nM		1000 to 10000 nM	1000 to 25000 nM	50 to 75%	50 to 75%	50 to 75%
CC(C)c1cc(Cc2c(Cl)cc(-n3nc(N)c(=O)[nH]c3=O)cc2Cl)n[nH]c1=O [Compound 36, 6-Amino-2-[3,5-dichloro-4-[(5-isopropyl-6-oxo-1H-pyridazin-3-yl)methyl]-phenyl]-4H-1,2,4-triazine-3,5-dione]	< 50 nM		< 50%	< 50 nM		< 50 nM	50 to 250 nM	50 to 75%	50 to 75%	50 to 75%
Cc1cc(-n2nc(N)c(=O)[nH]c2=O)cc(Cl)c1Oc1cc(C(C)C)c(=O)[nH]n1 [Compound 37, 6-Amino-2-[3-chloro-4-[(5-isopropyl-6-oxo-1H-pyridazin-3-yl)oxy]-5-methyl-phenyl]-4H-1,2,4-triazine-3,5-dione]	50 to 250 nM		50 to 75%	50 to 250 nM		50 to 250 nM	250 to 1000 nM	50 to 75%	50 to 75%	> 75%
Cc1cc(-n2nc(N)c(=O)[nH]c2=O)cc(C)c1Oc1cc(C(C)C)c(=O)[nH]n1 [Compound 38, 6-Amino-2-[4-[(5-isopropyl-6-oxo-1H-pyridazin-3-yl)oxy]-3,5-dimethylphenyl]-4H-1,2,4-triazine-3,5-dione]	250 to 1000 nM		< 50%	> 10000 nM		250 to 1000 nM	1000 to 25000 nM	> 75%	50 to 75%	> 75%
CC(C)c1c[nH]c2ccc(Oc3c(Cl)cc(-n4nc(N)c(=O)[nH]c4=O)cc3Cl)cc12 [Compound 41, 6-amino-2-[3,5-dichloro-4-[(3-isopropyl-1H-indol-5-yl)oxy]phenyl]-4H-1,2,4-triazine-3,5-dione]	< 50 nM		50 to 75%	< 50 nM		< 50 nM	< 50 nM	50 to 75%	50 to 75%	> 75%
